Key:
[1] = system: protein kinases in MDA-MB-231 breast cancer cell lysates; assay: Affinity purification of kinases from MDA-MB-231 cell lysates on inhibitor resins, bound proteins identified by LC-MS/MS; type: binding, Homo sapiens; conditions: MDA-MB-231 lysate
Procedure: MDA-MB-231 cells were cultured in RPMI1640 (Invitrogen) supplemented with 10% fetal bovine serum (Invitrogen) and insulin at 0.25 IU/ml. Subconfluent cells were lysed with ice-cold lysis buffer containing 50 mM HEPES-NaOH (pH 7.5), 150 mM NaCl, 0.5% Triton X-100, 1 mM EDTA 1 mM EGTA supplemented with additives (10 μg/ml aprotinin, 10 μg/ml leupeptin, 1 mM PMSF, 10 mM NaF, 50 ng/ml calyculin A, 1% phosphatase inhibitor mixture 3 (Sigma), and 2.5 mM Na3VO4) for 5 min on ice. Cell debris was removed by centrifugation at 16,500 g at 4° C. for 30 min and the supernatant was subsequently filtered through a 0.45 μm PVDF membrane (Millipore). Protein concentrations were measured by the Bradford assay (Bio-Rad).
Kinase inhibitors Purvalanol B (Tocris) and SU6668 (Biochempartner Chemical) were immobilized to EAH-sepharose 4B (GE Healthcare) and VI16832 (Evotec) was coupled to ECH-sepharose 4B (GE Healthcare) beads via a carbodiimide-mediated reaction. Briefly, 1 ml of beads were washed 3 times with 10 ml of 0.5 M NaCl, twice with 10 ml H2O and once with coupling buffer made of 50% dimethylformamide (DMF) and 50% ethanol. The washed and aspirated beads were then mixed with 1 ml of inhibitor solution (Purvalanol B at 10 mM, SU6668 at 10 mM and VI16832 at 3 mM dissolved in coupling buffer), followed by dropwise addition of 150 μl of 1 M N-(3-dimethylaminopropyl)-N-ethylcarbodiimide hydrochloride (EDC) in coupling buffer.
The coupling reaction was carried out in the dark at room temperature overnight on a rotating wheel. To block the remaining reactive groups, the resin was washed twice with 2 ml of coupling buffer followed by addition of 1 ml of DMF/ethanol/ethanolamine at ratio 1:1:1 (pH 8). The reaction was initiated by dropwise addition of 150 μl of 1 M EDC in coupling buffer and the mixture was then incubated again in the dark at room temperature overnight with gentle agitation. Subsequently the resin was washed 3 times with 10 ml of coupling buffer, twice with 10 ml of 0.5 M NaCl and once with 10 ml of 20% ethanol. The resin was stored in 20% ethanol as a suspension at 4° C. in the dark. For CTx-0294885 immobilization, activated CH Sepharose 4B (GE Healthcare) (0.5 g) was swelled with 20 ml of 1 mM HCl and collected by vacuum filtration. The collected resin was washed 4 times with 20 ml of 1 mM HCl, and mixed with 3 ml of CTx-0294885 (9 mM) dissolved in 50% DMF 50% 100 mM sodium bicarbonate (pH 8). The suspension was agitated on a shaker table for 18 h. The mixture was washed with 5 ml of 50% aqueous DMF and the resin was resuspended in IM ethanolamine in 50% aqueous DMF. The mixture was agitated for 1 h before the resin was collected by filtration and washed 5 times with 5 ml of 50% aqueous DMF, 10 times with 10 ml of 0.1 M acetate buffer (pH 4), 10 times with 10 ml of 0.1 M bicarbonate buffer (pH 8), and 10 times of 10 ml 20% ethanol. The resin was resuspended in 10 ml of 20% ethanol and stored at 4° C. An equally suitable alternative protocol for CTx-0294885 immobilization is described in Example 2.
The salt concentration in the protein lysates was adjusted to 1 M NaCl and the kinase inhibitor resins were washed once with 10 ml of H2O and once with 10 ml of washing buffer A (lysis buffer with 1 M NaCl plus 10 mM NaF and 0.1 mM Na3VO4) prior to kinase enrichment. For testing of single kinase inhibitors, 1 ml of inhibitor resin was incubated with 50 mg of protein lysates, and for multi-inhibitor resins, a cocktail comprising 1 ml of each inhibitor resin was used for incubation with 100 mg of protein lysates. After 2 h of incubation at 4° C. in the dark on a rotating wheel, the resins were washed twice with 10 ml of washing buffer A, once with 10 ml of washing buffer B (same as washing buffer A except NaCl concentration is 150 mM instead of 1 M) and once with washing buffer C (50 mM HEPES, 10 mM NaF and 0.1 mM Na3VO4). […]

[2] = system: protein kinases from three different cell lines; conditions: cited from earlier work

Row | Compound | proteins identified ([1]; CTx-0294885 coupled to CL sepharose 4B beads, single resin) | kinases of the RGC (receptor guanylate cyclase) family identified ([1]; FIG. 2A) | major kinase subgroups with representatives identified ([1]; FIG. 2A) | relative enrichment of kinase families ([1]; FIG. 2B) | kinases bound that are not bound by the other reagents (P, S, V) ([1]; comparison with purvalanol B, SU6668 and VI16832 columns) | enrichment of non-protein kinases ([1]; gene ontology analysis, FIG. 2C) | kinase identifications if phosphosites are included (kinases bound) ([1]; single resin) | kinases identified among the proteins identified ([1]; single resin, phosphosites not included) | protein kinases detected in total [2]
1 | CNC(=O)c1ccccc1Nc1nc(Nc2ccc(N3CCNCC3)cc2)ncc1Cl [CTx-0294885, 2-((5-Chloro-2-((4-(piperazin-1-yl)phenyl)amino)pyrimidin-4-yl)amino)-N-methylbenzamide] | 2546 | No kinases from the minor RGC (receptor guanylate cyclase) family were identified | 9 | particularly strong enrichment for kinases of the STE, CMGC and AGC subfamilies | 77 | enrichment for other purine nucleotide binding proteins | 240 | 185 | 
2 | NCCOc1ccc(Nc2ncc3ccc(=O)n(C4CC5CCC4C5)c3n2)cc1 (stereo not drawn) [VI16832] |  |  |  |  |  |  |  |  | 170
